Literature values in patent US11225464B2, “Compositions and methods for the treatment of gastrointestinal polyps” (CELLIX BIO PRIVATE LIMITED, priority 2016, dated 2022).

Experiments:
[1] = long-term users
colorectal adenomas = conditions: FAP patients; long-term use; colon as well as rectum of patients after colectomy
duodenal adenomas = conditions: FAP patients

Structure (SMILES)	cardiovascular effects [1]	reduction of the number of colorectal adenomas (colorectal adenomas)	effect on duodenal polyposis / number of duodenal adenomas (duodenal adenomas)
CS(=O)(=O)c1ccc(C2=C(c3ccccc3)C(=O)OC2)cc1 [rofecoxib]	cardiovascular effects (myocardial infarction or stroke) have been described	–	–
CC1=C(CC(=O)O)c2cc(F)ccc2/C1=C\c1ccc([S+](C)[O-])cc1 (stereo not drawn) [sulindac]	–	> 50%	not in duodenal polyposis
